Results as given in patent publication US7329677B2, “Imidazo(4,5-b)pyridine-derivatives as inducible no-synthase inhibitors” (Altana Pharma AG, priority 2003, dated 2008).
Counter-ions that a name gives are not always drawn.

Legend:
[1] = molecular target: T1, human inducible NO-synthase (Homo sapiens, UniProt P35228); assay: Measurement of inducible NO-synthase activity ([3H]arginine conversion); assay type: biochemical; details: crude cytosolic fraction containing human inducible NO-synthase; 0.1 μM arginine; 45 to 60 min at 37° C.; read-out: Inhibition of iNOS activity [measured as −logIC50 (mol/l)] (converted)
T1 construct: host or cells: crude cytosolic fraction
Procedure: The assay is performed in 96-well microtiter F-plates (Greiner, Frickenhausen, FRG) in a total volume of 100 μl in the presence of 100 nM calmodulin, 226 μM CaCl2, 477 μM MgCl2, 5 μM flavin-adenine-dinucleotide (FAD), 5 μM flavin mononucleotide (FMN), 0.1 mM NADPH, 7 mM glutathione, 10 μM BH4 and 100 mM HEPES pH 7.2. Arginine concentrations are 0.1 μM for enzyme inhibition experiments. 150000 dpm of [^3H]arginine are added to the assay mixture. Enzyme reaction is started by the addition of 4 μg of a crude cytosolic fraction containing human inducible NO-synthase and the reaction mixture is incubated for 45 to 60 min at 37° C. Enzyme reaction is stopped by adding 10 μl of 2M MESbuffer pH 5,0. […] of the incubation mixture are transferred into a MADP N65 filtration microtiter plate (Millipore, Eschborn, FRG) containing already 50 μl of AG-50W-X8 cation exchange resin (Biorad, München, FRG). […] Scintillation plates are counted in a szintillation counter.
For the measurement of inducible NO-synthaseinhibiting potencies of compounds increasing concentrations of inhibitors were included into the incubation mixture. IC50-values were calculated from the percent inhibition at given concentrations by nonlinear least square fitting.

| melting point [°C] | IC50 [1] [nM] | Structure (SMILES) |
| --- | --- | --- |
| 61 to 64 |  | COc1ccnc(CC(C)c2nc3cccnc3[nH]2)c1 (racemic) (as salt: hydrochloride) [Example 1, (R,S)-2-[3-(4-Methoxypyridin-2-yl)prop-2-yl]-3H-imidazo[4,5-b]pyridine hydrochloride] |
|  | 70.8 | COc1ccnc(CC(C)c2nc3cccnc3[nH]2)c1 (racemic) [Example 1, (R,S)-2-[3-(4-Methoxypyridin-2-yl)prop-2-yl]-3H-imidazo[4,5-b]pyridine hydrochloride] |
